The results in this text go back to PubChem BioAssay (NCI).

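Grown in 96-well plates, cells were treated for 48 hours with each compound at five concentrations. Insufficient inhibition: endpoint recorded as highest concentration tested. At the TGI there is no net growth.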

Common to all, as to experiment: DTP human tumour cell line panel, 48 h
Assay [1] relates to ACHN renal.
Assay [2] relates to EKVX NSCLC.
The test system of assay [3] is HCT-15 colon.
Assay [4] deals with HOP-92 NSCLC.
Assay [5] deals with HS 578T breast.
In assay [6] the test system is HT29 colon.
The test system of assay [7] is K-562 leukemia.
Assay [8] concerns LOX IMVI melanoma.
Assay [9] concerns MOLT-4 leukemia.
The subject of assay [10] is NCI-H23 lung.
Assay [11] concerns NCI-H522 lung.
Assay [12] relates to OVCAR-4 ovarian.
The subject of assay [13] is SNB-19 CNS.
For assay [14], the system named is SR leukemia.
For assay [15], the system named is UACC-257 melanoma.

As to `CN(C)Cc1cc(N=Nc2ccccc2Cl)ccc1O`, the concentration for total growth inhibition (TGI) was 33.4 µM in assay [1]; above 100 µM in assay [2]; 75.5 µM in assay [3]; above 100 µM in [4]; 48.4 µM in [5]; 33.7 µM in [6]. Besides, the TGI in assay [7] was 38.4 µM; in [8], 25.3 µM; in assay [9], 28.3 µM; in assay [10] it was 83.9 µM; in [11], 23.5 µM; in assay [12], above 100 µM. The TGI in assay [13] is above 100 µM; in assay [14], above 100 µM; in assay [15], 46.3 µM.

Take `CSC1=C(C#N)C(=O)N(c2ccc(Cl)cc2)C(=O)C1C#N` (stereo not given): the total growth inhibition concentration (TGI) in assay [1] is above 100 µM; in [2], above 100 µM; in assay [3] it was above 100 µM; in assay [4], 76.9 µM; in assay [5], above 100 µM; in assay [6], above 100 µM. For the same molecule, the TGI in [7], in assay [8], in [9], in assay [10], in assay [11] and in assay [12] was above 100 µM in each case. Besides, the TGI in [13], in assay [14] and in assay [15] was above 100 µM throughout.

`c1ccc(CN2CCCN3CCN(CCCN(Cc4ccccc4)CC3)CC2)cc1`: the total growth inhibition concentration (TGI) in assay [1], in assay [2], in assay [3], in [4], in [5] and in [6] was above 100 µM throughout. Also, the TGI in assay [7], in [8], in assay [9], in [10], in [11] and in assay [12] was above 100 µM each time. Also, the concentration for total growth inhibition (TGI) in [13] is above 100 µM; in assay [14], above 100 µM; in assay [15], 68.5 µM.

Turning to `CC(C)(Cl)C(Br)CCC(CBr)=C(Cl)CCl` (mixture of isomers), the concentration for total growth inhibition (TGI) in assay [1] was above 8.98 µM; in [2], above 10 µM; in assay [3], 5.15 µM; in assay [4], 3.5 µM; in assay [5], above 10 µM; in [6] it was 3.77 µM. Besides, the TGI in [7] was 3.75 µM; in [8] it was 3.59 µM; in assay [9] it was 1.96 µM; in assay [10], 5.42 µM; in [11], 3.22 µM; in [12] it was above 5.87 µM. The TGI in assay [13] stood at 9.73 µM; in [14], 2.55 µM; in assay [15] it was 4.89 µM.

As to `N#CC(c1ccccc1)N(CCc1ccccc1)C(=O)c1ccccc1` (stereo not given), the TGI in assay [1] is above 100 µM; in assay [2] it was above 100 µM; in assay [3], above 100 µM; in assay [4], 59.7 µM; in assay [5] it was 86.3 µM; in assay [6], above 100 µM. In addition, the concentration for total growth inhibition (TGI) in [7], in [8], in assay [9], in [10], in assay [11] and in assay [12] was above 100 µM each time. Besides, the total growth inhibition concentration (TGI) is above 81 µM in assay [13], above 100 µM in assay [14] and above 100 µM in [15].

On to `COc1cc(C2=C(C)[C@@H]3CN(CC=C3c3ccc(Cl)cc3)C2)c(S(=O)(=O)O)cc1OC`, for which the total growth inhibition concentration (TGI) in assay [1], in assay [2], in [3], in [4], in [5] and in assay [6] was above 100 µM in each case. In addition, the TGI in assay [7], in [8], in assay [9], in assay [10], in assay [11] and in assay [12] was above 100 µM in each case. Besides, the TGI in [13], in assay [14] and in assay [15] was above 100 µM throughout.

As for `CCOC(=O)c1ccc(NC(=O)O/N=C(/Cl)C(C)C)cc1`, the total growth inhibition concentration (TGI) was 27 µM in assay [1]; 31.3 µM in [2]; 24.9 µM in assay [3]; 3.7 µM in [4]; 94.8 µM in assay [5]; 48 µM in assay [6]. For the same molecule, the TGI is 3.52 µM in assay [7]; 9.65 µM in assay [8]; 4.63 µM in assay [9]; 47.7 µM in assay [10]; 3.85 µM in [11]; 28.4 µM in assay [12]. Moreover, the TGI in [13] was above 59.1 µM; in assay [14], 11.2 µM; in assay [15] it was 32 µM.

Consider `CC(C)C(C/C=C1/CC(CO)(COC(=O)C(C)(C)C)OC1=O)C(C)C` (stereo not given), for which the total growth inhibition concentration (TGI) was determined as 21 µM in [1]; 23 µM in assay [2]; 34.6 µM in assay [3]; 25.3 µM in assay [4]; 11 µM in [5]; 32.3 µM in [6]. Also, the TGI in assay [7] worked out at 24.9 µM; in assay [8], 28.4 µM; in assay [9], 35.6 µM; in assay [10] it was 23.8 µM; in [11], 27.6 µM; in assay [12] it was 31.5 µM. The results for the TGI in assay [13], in assay [14] and in assay [15] were 26.1 µM, above 50.5 µM and 32.7 µM, respectively.

`OC12CC3c4ccccc4NC3C3Oc4cccc5c4C31CCN(CC1CC1)C2C5` (stereo not given): the TGI in [1] was 34.5 µM; in assay [2], 87.7 µM; in assay [3] it was 35.1 µM; in assay [4], 24.5 µM; in assay [5] it was 46.3 µM; in assay [6] it was 34.2 µM. Also, the TGI in assay [7] was found to be 52.6 µM; in [8] it was 30 µM; in assay [9], 73.1 µM; in assay [10], 30.6 µM; in assay [11] it was 39.7 µM; in [12], 55.5 µM. For the same molecule, the TGI amounted to 36.8 µM in [13], 59 µM in assay [14] and 32.4 µM in assay [15].

For `CCN=C=NCCCN(C)C`, the concentration for total growth inhibition (TGI) in assay [1], in assay [2], in assay [3], in assay [4], in [5] and in assay [6] was above 100 µM throughout. For the same molecule, the TGI in assay [7], in assay [8], in assay [9], in assay [10], in [11] and in assay [12] was above 100 µM each time. Further, the TGI in assay [13], in assay [14] and in [15] was above 100 µM throughout.

On to `C=CCOc1ccc(C2(c3ccc(OCC=C)cc3)C(=O)Nc3ccccc32)cc1`, for which the TGI in assay [1] was above 10 µM; in assay [2], above 10 µM; in [3], above 10 µM; in assay [4], above 10 µM; in assay [5], 6.38 µM; in assay [6], above 10 µM. Also, the TGI in [7], in assay [8], in assay [9], in assay [10], in assay [11] and in assay [12] was above 10 µM throughout. The TGI in assay [13], in [14] and in [15] was above 10 µM throughout.

On to `N#Cc1nc(Sc2cnsn2)c(Sc2cnsn2)nc1C#N`, for which the TGI in assay [1] is 16 µM; in [2] it was 36.7 µM; in assay [3] it was 13.1 µM; in assay [4], above 70.5 µM; in [5], 43 µM; in [6], 47.6 µM. Also, the TGI is above 81.8 µM in assay [7]; 50.2 µM in [8]; above 30.1 µM in assay [9]; 46.2 µM in assay [10]; 8.53 µM in assay [11]; 61.1 µM in assay [12]. The results for the TGI in assay [13], in assay [14] and in assay [15] were above 78.1 µM, above 100 µM and 39 µM, respectively.

Consider `CN(C)/N=C1\C=C2CC[C@H](O[Si](C)(C)C(C)(C)C)[C@@]2(C)CC1`, for which the TGI in assay [1] is 30.1 µM; in [2], 38.6 µM; in [3], 33 µM; in assay [4], 28.5 µM; in [5] it was 43.9 µM; in assay [6], 34.9 µM. In addition, the total growth inhibition concentration (TGI) came to 35.9 µM in assay [7]; 34.4 µM in assay [8]; 32.4 µM in [9]; 52.4 µM in [10]; 26.3 µM in assay [11]; 28.6 µM in assay [12]. Moreover, the values for the TGI in assay [13], in assay [14] and in assay [15] were 31.9 µM, 40.9 µM and 30.6 µM, respectively.

As for `CC(=O)Nc1ccc(-c2nc3ccccc3s2)cc1Cl`, the TGI was above 100 µM in assay [1]; above 100 µM in assay [2]; above 100 µM in [3]; above 100 µM in assay [4]; 93.3 µM in assay [5]; above 100 µM in assay [6]. The TGI in assay [7], in assay [8], in assay [9], in assay [10], in [11] and in assay [12] was above 100 µM each time. The TGI in [13], in assay [14] and in assay [15] was above 100 µM in each case.

For the molecule `CCN(CC)CCOc1ccc(N2Cc3ccccc3C2=O)cc1`, the TGI in assay [1], in assay [2], in assay [3], in assay [4], in assay [5] and in assay [6] was above 10 µM in each case. The TGI in assay [7], in assay [8], in assay [9], in [10], in assay [11] and in assay [12] was above 10 µM each time. In addition, the TGI in assay [13], in [14] and in assay [15] was above 10 µM throughout.

Turning to `COc1ccc(C2C3=C(COC3=O)OC(C)(C)Oc3cc4c(cc32)OCO4)cc1` (stereo not given), the TGI in assay [1] was above 100 µM; in assay [2], above 92.7 µM; in assay [3], above 100 µM; in [4], above 65.8 µM; in assay [5], above 100 µM; in assay [6] it was above 100 µM. Also, the TGI in assay [7] is above 61.6 µM; in assay [8] it was above 86.8 µM; in [9] it was above 83.8 µM; in assay [10], above 100 µM; in [11], above 69.5 µM; in assay [12], above 100 µM. Moreover, the TGI in [13], in assay [14] and in assay [15] was above 100 µM in each case.

Regarding `CCOC(=O)c1c(C)noc1/N=N/N(CCO)CCO`, the TGI was above 100 µM in assay [1]; above 100 µM in assay [2]; above 100 µM in assay [3]; 88.5 µM in [4]; above 100 µM in [5]; above 100 µM in assay [6]. Also, the TGI in assay [7] is above 100 µM; in assay [8], above 100 µM; in assay [9] it was 60.3 µM; in assay [10], above 100 µM; in assay [11], 70.7 µM; in [12], above 100 µM. Besides, the TGI in assay [13] was above 100 µM; in assay [14], 66.1 µM; in assay [15], 86.5 µM.

Take `Cc1ccc(-c2cn3c(nc4ccccc43)c(-c3ccccc3)n2)cc1`: the TGI was above 100 µM in [1]; above 100 µM in assay [2]; above 100 µM in [3]; 56.4 µM in [4]; above 77.2 µM in assay [5]; above 100 µM in [6]. Besides, the TGI in assay [7] was above 100 µM; in [8], above 100 µM; in assay [9], above 100 µM; in assay [10] it was 80.8 µM; in [11], above 100 µM; in [12], above 100 µM. In addition, the results for the total growth inhibition concentration (TGI) in [13], in assay [14] and in [15] were 48.7 µM, above 100 µM and above 100 µM, respectively.

The term TGI denotes the concentration at which net growth stops. Higher therefore signals less potent growth arrest.
